The values that follow come from patent US20240238263A1, “USE OF PYRIDONE DERIVATIVE CONTAINING HETEROATOM CYCLOBUTANE SUBSTITUENT” (GUANGZHOU JOYO PHARMATECH CO., LTD, priority 2021, published 2024).

The subject of the experiment is dorsal skin full-thickness excisional wound in STZ-induced diabetic rats. Kind of experiment: Dorsal skin full-thickness excisional wound model in STZ-induced diabetic rats, wound closure. The experiment is classed as in vivo, Wistar rats. The method, then: In this study, 50 STZ-diabetic rats were used to simulate Type 1 diabetes, with an additional 8 normal rats serving as the control group (normal blank gel control group (without STZ)). The method for modeling the STZ-diabetic rat is as follows: Male Wistar rats were weighed and then intraperitoneally injected with Streptozotocin (STZ, freshly prepared, dissolved in 0.1 M citrate buffer (pH 4.5)) at a dosage of 80 mg/kg. STZ was intraperitoneally injected twice in total, with a 5-day interval between injections. Three days after the second STZ injection, rats with fasting blood glucose levels greater than 250 mg/dl were defined as diabetic model rats. Studies on skin wound healing could be conducted from 1 to 8 weeks after the successful establishment of the diabetic rat model. • 2.
In diabetic model rats, the dorsal skin was marked with a stamp, and full-thickness excision was performed to create a standardized wound area. The day of the full-thickness skin excision surgery was designated as Day 1 of the experiment. The specified surgical procedure was as follows: • 1) Prior to surgery, animals were anesthetized with 2-5% isoflurane. The back was shaved and prepared, and the surgical area was disinfected with iodophor, followed by de-iodination with 75% alcohol. • 2) All animals were marked on the skin of their backs using a stamp with a circular pattern. A circular full-thickness skin excision was performed along the midline of the rat's back, extending down to the fascial layer. […] The surgical site was essentially consistent for each animal; • 3) Post-surgery, every 8-12 hours, 8 mg/kg of bupivacaine (diluted to 0.25% with physiological saline) was injected subcutaneously at the wound site. All animals were closely monitored until they regained consciousness. Animals were monitored daily, and if symptoms of pain persisted, they would continue to receive pain medication. • 4. Drug administration:
All experimental groups were topically administered. Before administering the medication, wounds were rinsed with physiological saline and any residual moisture was absorbed with a sterile cotton swab. Then, the medication was applied. For the GeneTime group, the solution was evenly applied to the wound and surrounding skin, with the dressing changed twice a day. For the other groups, the gel samples were applied from the periphery toward the center, focusing first on the edges of the lesion before covering inward, with the dressing changed twice a day. Medication was applied immediately after the wound model was created, and each group was continuously administered for 18 days. For specific administration information, see Table 2. • 5. Efficacy assessment • 1) Blood glucose monitoring: Blood samples were obtained from all animals via tail vein sampling, and fasting blood glucose levels were measured on days 0/9/18 using a glucometer. • 2) Evaluation of wound closure:
After anesthetizing the rats with isoflurane, a ruler was placed near the wound as a reference scale. Using a digital camera, photos of the wound on the rat's back were taken on days 1, 4, 8, 11, 14, and 18, maintaining a constant focus and pixel condition. The obtained images were processed by software to measure the wound area. • 6. Statistical analysis
Experimental data were expressed as the mean±standard error of the mean (mean±S.E.M.). Statistical analyses were conducted using appropriate methods in software such as Graphpad Prism or SPSS. A p-value of less than 0.05 is considered to indicate a significant difference. • 7. Results • 1) Fasting blood glucose
Remaining Open Wound Area %=Open Wound Area (O)/Initial Wound Area (I)*100%

Consider `CC1(c2ccc(=O)n(-c3ccsc3)c2)COC1` [compound I], for which the “Remaining open wound area” value is on record as 100% ± (0.3% compound I gel, 50 mg topical twice daily, Day 1 (day of surgery)); 94.82% ± (0.3% compound I gel, 50 mg topical twice daily, Day 4); 54% ± (0.3% compound I gel, 50 mg topical twice daily, Day 8); 24.5% ± (0.3% compound I gel, 50 mg topical twice daily, Day 11); 7.75% ± (0.3% compound I gel, 50 mg topical twice daily, Day 14); 1.22% ± (0.3% compound I gel, 50 mg topical twice daily, Day 18). Moreover, the “Remaining open wound area” value is, setting by setting: (1% compound I gel, topical twice daily, Day 1 (day of surgery)) 100% ±; (1% compound I gel, topical twice daily, Day 4) 94.25% ±; (1% compound I gel, topical twice daily, Day 8) 55.4% ±; (1% compound I gel, topical twice daily, Day 14) 5.47% ±; (1% compound I gel, topical twice daily, Day 18) 0.78% ±; (3% compound I gel, topical twice daily, Day 1 (day of surgery)) 100% ±. Further, the “Remaining open wound area” value reads like this: (3% compound I gel, topical twice daily, Day 4) 93.96% ±; (3% compound I gel, topical twice daily, Day 8) 56.92% ±; (3% compound I gel, topical twice daily, Day 14) 6% ±; (3% compound I gel, topical twice daily, Day 18) 2.01% ±. Also, the “Change of remaining open wound area % vs model blank gel control group” value by setting is: (1% compound I gel, after 14 days of topical administration, no statistical difference) “tended to decrease”; (1% compound I gel, day 11 after administration, P<0.01) “significantly reduced”; (3% compound I gel, after 14 days of topical administration, no statistical difference) “tended to decrease”; (3% compound I gel, day 11 after administration, P<0.05) “significantly reduced”.
